Test results reported in patent US20150157633A1, “WNT PROTEIN SIGNALLING INHIBITORS” (The Board of Regents of the University of Texas System, priority 2012, published 2015).
Entries after “also recorded” stand apart in the source; their conditions may differ.

Columns and labels:
Porcn = target: T1, Porcn (Homo sapiens, UniProt Q9H237); assay: Click chemistry labeling of Wnt3A-Fc with alkynyl-PA (Wnt fatty acylation); assay type: cell-based
T1 construct: endogenous in cells; host or cells: HEK293
T1 sequence (Q9H237 1-461): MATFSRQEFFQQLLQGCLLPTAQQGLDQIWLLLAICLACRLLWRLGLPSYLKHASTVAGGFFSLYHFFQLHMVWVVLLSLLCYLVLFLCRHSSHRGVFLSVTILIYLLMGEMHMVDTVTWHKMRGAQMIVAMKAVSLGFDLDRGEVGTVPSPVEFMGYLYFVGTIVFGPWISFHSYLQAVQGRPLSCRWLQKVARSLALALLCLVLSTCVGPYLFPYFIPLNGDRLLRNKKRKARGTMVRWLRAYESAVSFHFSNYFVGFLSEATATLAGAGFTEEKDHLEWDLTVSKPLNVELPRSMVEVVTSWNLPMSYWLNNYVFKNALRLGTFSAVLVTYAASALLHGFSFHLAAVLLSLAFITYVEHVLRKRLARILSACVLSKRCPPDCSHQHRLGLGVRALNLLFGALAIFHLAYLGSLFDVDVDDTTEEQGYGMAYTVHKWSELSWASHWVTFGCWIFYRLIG
Description: Click chemistry. HEK293 cells transiently transfected with the Wnt3A-Fc DNA expression construct were treated with C16 ω-alkynyl fatty acid (see Reagents; 100 μM final concentration) for six hours as previously described (9) in the presence or DMSO or various IWP compounds. C16 ω-alkynyl fatty acid-labeled Wnt3A-Fc protein isolated from cell lysate using Protein A sepharose was then subjected to a copper catalyzed alkyne-azide cycloaddition with biotin-azide with protein immobilized on the sepharose. The biotinylated Wnt protein run on SDS PAGE was detected using HRP conjugated streptavidin.

HHAT = HHAT (Homo sapiens, UniProt Q5VTY9); assay: Click chemistry labeling of Hh protein with alkynyl-PA (Hh fatty acylation); assay type: cell-based
Wnt1-GFP = assay: Organotypic embryonic kidney culture from Wnt1-GFP mice; assay type: cell-based
Description: Organotypic kidney culture. E11.5 urogenital systems were removed and bisected in sterile phosphate buffered saline (PBS) and then the individual halves were cultured in […] of media at the air-media interface on 24-well tissue culture treated, 6.5 mm diameter, […] pore size Transwell filters (Corning, catalog no. 3422). The media (DMEM with 10% fetal bovine serum (FBS) and Pen/Strep) was supplemented with either DMSO or IWP2 and replaced with fresh media every 12, 24, or 48 hours. All treatments were repeated at least three times with a minimum of six individual kidneys from six distinct embryos each time.

Wnt-GL fusion proteins = assay: Wnt-Gaussia luciferase secretion assay in HEK293 cells; assay type: cell-based; conditions: HEK293 cells expressing one of several Wnt-GL proteins
Description: (§1) Luciferase reporter assays. Wnt-Gaussia luciferase secretion and SuperTopFlash assays were conducted as described using a Dual Luciferase kit (Promega) (Chen et al., 2009).

Wnt5A = assay: Wnt5A-dependent antagonism of Wnt/β-catenin signaling, STF reporter in HEK293 cells; assay type: cell-based; conditions: Wnt3A-containing conditioned medium
Description: as §1

Jnk = assay: Wnt7B-induced Jnk phosphorylation in L fibroblasts; assay type: cell-based, Mouse; conditions: L fibroblasts transfected with Wnt7B DNA
Dv12 = Dv12 phosphorylation in HeLa cells (Western blot); assay type: cell-based; conditions: cell-autonomous Wnt signaling
[1] = system: general protein secretion; conditions: previously demonstrated (Chen et al., 2009); cited from earlier work
Hh = conditions: previously demonstrated (Chen et al., 2009); cited from earlier work
Notch = conditions: previously demonstrated (Chen et al., 2009); cited from earlier work
Wnt/β-catenin pathway [2] = assay: Wnt-responsive EGFP reporter in transgenic zebrafish embryos (7XTCF-siam:EGFP); assay type: in vivo; conditions: for Wnt signaling activity (EGFP reporter): embryos treated from 4 hpf for 20 hours, compound in medium
Wnt/β-catenin pathway [3] = assay: Wnt reporter GFP in cultured zebrafish primary embryonic fibroblasts; assay type: cell-based; conditions: fibroblasts from 6 hpf embryos, GFP visualized 20 hrs later
From the text: Zebrafish embryonic cell cultures were initiated from embryos at the shield stage (6 hpf). The embryos were dissociated in trypsin/EDTA solution with gentle homogenization and pipetting. After centrifugation, the collected cells were resuspended in F12/L15/DMEM medium and placed into a 24-well tissue culture plate.

tailfin regeneration = assay: Caudal fin regeneration assay in zebrafish larvae; assay type: in vivo; conditions: larvae resected at 3 days post fertilization, IWP12 50 μM, 4 days
[4] = system: Wnt-planar cell polarity (Wnt/PCP) signaling; assay: Convergence and extension gastrulation movements, whole mount in situ hybridization; assay type: in vivo, zebrafish; conditions: embryos treated starting 4 hpf
Engrailed (eng1a) = assay: eng1a expression at the midbrain/hindbrain boundary, in situ hybridization; assay type: in vivo, zebrafish; conditions: embryos (4 hpf) treated for 20 hours
fin regrowth = assay: Resumption of caudal fin regrowth after removal of compound; assay type: in vivo, zebrafish; conditions: resected caudal fins, water containing IWR-1 for 7 d, then removal
From the text: Achieving transient repression of pathological Wnt response without incurring permanent damage to normal stem cell function is a key anticancer therapeutic goal.

Axin2 = Axin2 expression in DLD-1 cells; assay type: cell-based; conditions: exposure for 2 h
From the text: Aberrant transcriptional induction of Wnt/β-catenin target genes is typically observed in CRC cells that harbor loss-of-function mutations in the APC tumor suppressor.

Chain of HHAT (Q5VTY9 whole entry, species assumed): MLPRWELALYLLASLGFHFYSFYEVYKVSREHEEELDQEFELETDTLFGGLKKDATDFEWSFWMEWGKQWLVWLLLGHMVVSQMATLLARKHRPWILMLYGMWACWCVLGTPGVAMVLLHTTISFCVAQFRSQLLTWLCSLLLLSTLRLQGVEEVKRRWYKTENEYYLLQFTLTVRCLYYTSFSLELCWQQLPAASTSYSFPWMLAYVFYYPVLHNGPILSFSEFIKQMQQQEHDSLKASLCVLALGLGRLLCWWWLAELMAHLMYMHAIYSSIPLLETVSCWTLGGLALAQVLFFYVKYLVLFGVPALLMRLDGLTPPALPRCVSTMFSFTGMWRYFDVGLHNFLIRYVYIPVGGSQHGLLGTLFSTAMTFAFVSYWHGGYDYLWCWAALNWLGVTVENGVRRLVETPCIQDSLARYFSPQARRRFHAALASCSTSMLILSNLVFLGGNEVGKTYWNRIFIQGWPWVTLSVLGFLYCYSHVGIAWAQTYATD

SMILES	Wnt protein acylation (Porcn)	fatty acylation of Hh mediated by Hhat (HHAT)	tubule induction (Wnt1-GFP; E11.5 embryonic kidney culture, Wnt/β-catenin-dependent process)	accumulation of Wnt1 on the cell surface (Wnt1-GFP; E11.5 embryonic kidney, treated in vitro for 24 hours)	accumulation of Wnt proteins in the cell culture medium (Wnt-GL fusion proteins)	production of non-canonical Wnt (Wnt5A) (Wnt5A)	activation (phosphorylation) of Jnk (Jnk)	Dv12 phosphorylation (Dv12)	general protein secretion [1]	cellular responses mediated by Hh (Hh)	cellular responses mediated by Notch (Notch)	excess of IWP12 equivalent in activity to IWR1 (Wnt/β-catenin pathway [2]; EGFP reporter fluorescence, posterior region)	Wnt signaling activity (EGFP reporter) (Wnt/β-catenin pathway [2])	posterior body morphogenesis (Wnt/β-catenin pathway [2]; zebrafish embryos)	Wnt/β-catenin pathway response (GFP) (Wnt/β-catenin pathway [3])	tailfin regeneration following resection (tailfin regeneration)	convergence and extension gastrulation movements [4]	expression of MHB marker Engrailed (eng1a) (Engrailed (eng1a))	fin tissue regeneration after chemical removal (fin regrowth)	expression of Axin2 (Axin2)
Cc1ccc2nc(NC(=O)CSc3nc4c(c(=O)n3-c3ccccc3)SCC4)sc2c1 [IWP2]	disrupts Wnt protein acylation	does not block fatty acylation	disrupt tubule induction	block the accumulation of Wnt1 on the cell surface	abrogated the accumulation of Wnt proteins in the cell culture medium	inhibits the production of a non-canonical Wnt (Wnt5A)	disrupted	inhibits Dv12 phosphorylation	does not block	does not block	does not block	–	–	–	–	–	–	–	–	–
Cc1ccc2nc(NC(=O)CSc3nc4c(c(=O)n3C)SC(C)C4)sc2c1 (stereo not drawn) [IWP12]	–	–	–	–	–	–	–	–	–	–	–	approximately 10 fold	loss of Wnt signaling activity; also recorded: Dose-dependent effects	severe effect on posterior body morphogenesis	loss of Wnt/β-catenin pathway responses	block juvenile fish tailfin regeneration	block convergence and extension gastrulation movements	decreased expression of the MHB marker Engrailed (eng1a)	–	–
O=C(Nc1cccc2cccnc12)c1ccc(N2C(=O)[C@@H]3[C@H](C2=O)[C@@H]2C=C[C@H]3C2)cc1 [IWR1]	–	–	–	–	–	–	–	–	–	–	–	–	Dose-dependent effects	–	–	–	–	–	able to regenerate tissue to nearly normal levels after chemical removal	a decrease in the expression of Axin2
